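Compound exposure: 48 hours, 5 concentrations, 96-well plates. GI50: concentration for 50% inhibition of growth. The concentration for full growth arrest is given as TGI.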
Assays:
Test in all cases: NCI anticancer screen, dose series, 48 h
786-0 renal = system: 786-0 renal
A498 renal = system: A498 renal
A549 NSCLC = system: A549 NSCLC
ACHN renal = system: ACHN renal
BT-549 breast = system: BT-549 breast
CAKI-1 renal = system: CAKI-1 renal
CCRF-CEM leukemia = system: CCRF-CEM leukemia
COLO 205 colon = system: COLO 205 colon
DU-145 prostate = system: DU-145 prostate
EKVX NSCLC = system: EKVX NSCLC
HCC-2998 colon = system: HCC-2998 colon
HCT-116 colon = system: HCT-116 colon
HCT-15 colon = system: HCT-15 colon
HL-60(TB) leukemia = system: HL-60(TB) leukemia
HOP-62 NSCLC = system: HOP-62 NSCLC
HOP-92 NSCLC = system: HOP-92 NSCLC
HS 578T breast = system: HS 578T breast
HT29 colon = system: HT29 colon
IGROV1 ovarian = system: IGROV1 ovarian
K-562 leukemia = system: K-562 leukemia
KM12 colon = system: KM12 colon
LOX IMVI melanoma = system: LOX IMVI melanoma
M14 melanoma = system: M14 melanoma
MALME-3M melanoma = system: MALME-3M melanoma
MCF7 breast = system: MCF7 breast
MDA-MB-231 breast = system: MDA-MB-231 breast
MDA-MB-435 = system: MDA-MB-435
MDA-N = system: MDA-N
MOLT-4 leukemia = system: MOLT-4 leukemia
NCI-H226 lung = system: NCI-H226 lung
NCI-H23 lung = system: NCI-H23 lung
NCI-H460 lung = system: NCI-H460 lung
NCI-H522 lung = system: NCI-H522 lung
NCI/ADR-RES ovarian = system: NCI/ADR-RES ovarian
OVCAR-3 ovarian = system: OVCAR-3 ovarian
OVCAR-4 ovarian = system: OVCAR-4 ovarian
OVCAR-5 ovarian = system: OVCAR-5 ovarian
OVCAR-8 ovarian = system: OVCAR-8 ovarian
PC-3 prostate = system: PC-3 prostate
RPMI-8226 leukemia = system: RPMI-8226 leukemia
SF-268 CNS = system: SF-268 CNS
SF-295 CNS = system: SF-295 CNS
SF-539 CNS = system: SF-539 CNS
SK-MEL-2 melanoma = system: SK-MEL-2 melanoma
SK-MEL-28 melanoma = system: SK-MEL-28 melanoma
SK-MEL-5 melanoma = system: SK-MEL-5 melanoma
SK-OV-3 ovarian = system: SK-OV-3 ovarian
SN12C renal = system: SN12C renal
SNB-19 CNS = system: SNB-19 CNS
SNB-75 CNS = system: SNB-75 CNS
SR leukemia = system: SR leukemia
SW-620 colon = system: SW-620 colon
T-47D breast = system: T-47D breast
TK-10 renal = system: TK-10 renal
U251 CNS = system: U251 CNS
UACC-257 melanoma = system: UACC-257 melanoma
UACC-62 melanoma = system: UACC-62 melanoma
UO-31 renal = system: UO-31 renal
RXF 393 renal = system: RXF 393 renal

O=C1CNc2cc(N3CCN(c4cccc(C(F)(F)F)c4)CC3)ccc2N1
TGI (786-0 renal): > 100 µM
GI50 (A498 renal): 24.7 µM
TGI (A498 renal): > 100 µM
TGI (A549 NSCLC): > 100 µM
TGI (ACHN renal): > 100 µM
TGI (BT-549 breast): > 100 µM
TGI (CAKI-1 renal): > 100 µM
TGI (CCRF-CEM leukemia): > 100 µM
TGI (COLO 205 colon): > 91.7 µM
TGI (DU-145 prostate): > 100 µM
TGI (EKVX NSCLC): > 100 µM
TGI (HCC-2998 colon): > 100 µM
TGI (HCT-116 colon): > 100 µM
TGI (HCT-15 colon): > 100 µM
TGI (HL-60(TB) leukemia): > 83.5 µM
TGI (HOP-62 NSCLC): > 100 µM
TGI (HOP-92 NSCLC): > 78.8 µM
TGI (HS 578T breast): > 100 µM
TGI (HT29 colon): > 100 µM
TGI (IGROV1 ovarian): > 100 µM
GI50 (K-562 leukemia): 9 µM
TGI (K-562 leukemia): > 100 µM
TGI (KM12 colon): > 100 µM
TGI (LOX IMVI melanoma): > 100 µM
TGI (M14 melanoma): > 100 µM
TGI (MALME-3M melanoma): 69.9 µM
TGI (MCF7 breast): > 90.1 µM
TGI (MDA-MB-231 breast): > 100 µM
TGI (MDA-MB-435): > 100 µM
TGI (MDA-N): > 100 µM
TGI (MOLT-4 leukemia): > 84.3 µM
TGI (NCI-H226 lung): > 100 µM
TGI (NCI-H23 lung): > 100 µM
TGI (NCI-H460 lung): > 100 µM
TGI (NCI-H522 lung): 46 µM
TGI (NCI/ADR-RES ovarian): > 91.1 µM
TGI (OVCAR-3 ovarian): > 100 µM
TGI (OVCAR-4 ovarian): > 100 µM
TGI (OVCAR-5 ovarian): > 100 µM
TGI (OVCAR-8 ovarian): > 100 µM
TGI (PC-3 prostate): > 82.7 µM
TGI (RPMI-8226 leukemia): > 67.5 µM
TGI (SF-268 CNS): > 100 µM
TGI (SF-295 CNS): > 92.3 µM
TGI (SF-539 CNS): > 100 µM
TGI (SK-MEL-2 melanoma): > 100 µM
TGI (SK-MEL-28 melanoma): > 100 µM
TGI (SK-MEL-5 melanoma): 40.3 µM
TGI (SK-OV-3 ovarian): > 100 µM
TGI (SN12C renal): > 100 µM
TGI (SNB-19 CNS): > 100 µM
TGI (SNB-75 CNS): > 100 µM
TGI (SR leukemia): > 100 µM
TGI (SW-620 colon): > 100 µM
TGI (T-47D breast): > 100 µM
TGI (TK-10 renal): > 100 µM
TGI (U251 CNS): > 100 µM
TGI (UACC-257 melanoma): > 100 µM
TGI (UACC-62 melanoma): > 86.1 µM
TGI (UO-31 renal): > 100 µM

O=C(/C(Cl)=C/c1ccccc1)c1ccccc1
TGI (786-0 renal): 3.37 µM
TGI (A498 renal): 46.1 µM
TGI (A549 NSCLC): 34.1 µM
TGI (ACHN renal): 4.81 µM
TGI (BT-549 breast): 6.49 µM
TGI (CAKI-1 renal): 3.97 µM
TGI (CCRF-CEM leukemia): 11.5 µM
TGI (DU-145 prostate): 29.8 µM
TGI (EKVX NSCLC): 25.6 µM
TGI (HCC-2998 colon): 12.9 µM
TGI (HCT-116 colon): 2.78 µM
TGI (HCT-15 colon): 8.35 µM
TGI (HOP-62 NSCLC): 41.5 µM
TGI (HOP-92 NSCLC): 12.9 µM
TGI (HS 578T breast): 15 µM
TGI (HT29 colon): 3.52 µM
TGI (K-562 leukemia): > 26 µM
TGI (KM12 colon): 14.9 µM
TGI (LOX IMVI melanoma): 8.8 µM
TGI (M14 melanoma): 4.98 µM
TGI (MALME-3M melanoma): 4.39 µM
TGI (MCF7 breast): > 28.4 µM
TGI (MDA-MB-231 breast): 20.6 µM
TGI (MDA-MB-435): 9.52 µM
TGI (MDA-N): 4.52 µM
TGI (MOLT-4 leukemia): > 21.3 µM
TGI (NCI-H226 lung): 18.1 µM
TGI (NCI-H23 lung): 26 µM
TGI (NCI-H460 lung): 30.5 µM
TGI (NCI-H522 lung): 3.76 µM
TGI (NCI/ADR-RES ovarian): 19.4 µM
TGI (OVCAR-3 ovarian): 8.36 µM
TGI (OVCAR-4 ovarian): 16.9 µM
TGI (OVCAR-5 ovarian): 19.8 µM
TGI (OVCAR-8 ovarian): 17.1 µM
TGI (PC-3 prostate): 11.6 µM
TGI (RPMI-8226 leukemia): > 46.2 µM
TGI (RXF 393 renal): 8.16 µM
TGI (SF-268 CNS): 21.9 µM
TGI (SF-295 CNS): 37.6 µM
TGI (SF-539 CNS): 13.1 µM
TGI (SK-MEL-2 melanoma): 28.6 µM
TGI (SK-MEL-28 melanoma): 6.06 µM
TGI (SK-MEL-5 melanoma): 12.1 µM
TGI (SK-OV-3 ovarian): 39.8 µM
TGI (SN12C renal): 3.92 µM
TGI (SNB-19 CNS): 29.3 µM
TGI (SNB-75 CNS): 26.9 µM
TGI (SR leukemia): 6.47 µM
TGI (T-47D breast): 27.1 µM
TGI (TK-10 renal): 11.7 µM
TGI (U251 CNS): > 40.1 µM
TGI (UACC-257 melanoma): 19.3 µM
TGI (UACC-62 melanoma): 22.9 µM
TGI (UO-31 renal): 5.49 µM

Source: PubChem BioAssay (NCI)
